Laboratory results taken from ChEMBL document CHEMBL5143688, “A kind of HIV-1 protease inhibitors containing phenols with antiviral activity against DRV-resistant variants” (Bioorg Med Chem, 2022).

Columns and labels:
[1] = tested on: Human immunodeficiency virus 1; assay: Antiviral activity against HIV1 NL4-3 VSV-G pseudotyped virus infected in human SUP-T1 cells assessed as inhibition of late stage viral production at 100 nM pretreated for 48 hrs followed by viral infection and measured after 48 hrs by luciferase assay relative to control; format: functional; conditions: Human immunodeficiency virus 1, NL4-3, SUP-T1, time 96 hrs
[2] = tested on: Human immunodeficiency virus 1; assay: Antiviral activity against wild-type HIV1 NL4-3 VSV-G pseudotyped virus infected in human SUP-T1 cells assessed as inhibition of late stage viral production pretreated with viral infected SUP-T1 cells for 48 hrs followed by reinfection in TZM-bl cells by luciferase reporter gene assay; format: functional, organism-based; conditions: Human immunodeficiency virus 1, NL4-3, SUP-T1
[3] = tested on: Human immunodeficiency virus 1; assay: Antiviral activity against DRV-resistant HIV1 NL4-3 VSV-G pseudotyped virus infected in human SUP-T1 cells assessed as inhibition of late stage viral production pretreated for 48 hrs followed by viral infection and measured after 48 hrs by luciferase assay; format: functional, organism-based; conditions: Human immunodeficiency virus 1, NL4-3, SUP-T1
[4] = biological target: Human immunodeficiency virus type 1 protease (Human immunodeficiency virus 1, UniProt Q72874); assay: Inhibition of HIV1 protease expressed in Escherichia coli using Arg-Glu (EDANS)-Ser-Gln-Asn-Tyr-Pro-Ile-Val-Gln-Lys(DABCYL)-Arg as substrate preincubated for 20 to 30 mins followed by substrate addition and measured for 10 mins by FRET assay
[5] = tested on: Human immunodeficiency virus 1; assay: Antiviral activity against HIV1 NL4-3 VSV-G pseudotyped virus infected in human SUP-T1 cells assessed as inhibition of late stage viral production at 10 uM pretreated for 48 hrs followed by viral infection and measured after 48 hrs by luciferase assay relative to control; format: functional; conditions: Human immunodeficiency virus 1, NL4-3, SUP-T1, time 96 hrs
[6] = Cytotoxicity against HEK293T cells assessed as reduction in cell viability measured after 24 hrs by CCK8 assay; format: toxicity, cell-based, HEK-293T; conditions: human
[7] = tested on: HIV1 protease; assay: Selectivity index, ratio of CC50 for HEK293T cells to IC50 for inhibition of HIV1 protease expressed in Escherichia coli; format: toxicity; conditions: human, read-out: Ratio CC50/IC50
[8] = tested on: Human immunodeficiency virus 1; assay: Antiviral activity against HIV1 NL4-3 VSV-G pseudotyped virus infected in human SUP-T1 cells assessed as inhibition of early stage viral production at 10 uM measured after 48 hrs by luciferase assay relative to control; format: functional; conditions: Human immunodeficiency virus 1, NL4-3, SUP-T1
[9] = Selectivity ratio of EC50 for antiviral activity against DRV-resistant HIV1 NL4-3 VSV-G pseudotyped virus infected in human SUP-T1 cells to EC50 for antiviral activity against wild-type HIV1 NL4-3 VSV-G pseudotyped virus infected in human SUP-T1 cells; format: functional, Human immunodeficiency virus 1

| Structure (SMILES) | IC50 [4] [nM] | CC50 at 24 h [6] [nM] | selectivity ratio [7] | further results |
| --- | --- | --- | --- | --- |
| CC(C)CN(C[C@@H](O)[C@H](Cc1ccccc1)NC(=O)O[C@H]1CO[C@H]2OCC[C@H]21)S(=O)(=O)c1ccc(N)cc1 | – | – | – | inhibition at 0.1 µM [1]: 100%; EC50 [2]: 2.5 nM; EC50 [3]: 100 nM |
| CC(C)CN(C[C@@H](O)[C@H](Cc1ccccc1)NC(=O)c1ccc(Cl)cc1O)S(=O)(=O)c1ccc([N+](=O)[O-])cc1 | 9.99 | – | – | – |
| CC(C)CN(C[C@@H](O)[C@H](Cc1ccccc1)NC(=O)c1ccc(Cl)cc1O)S(=O)(=O)c1ccc(F)cc1 | 6.94 | – | – | inhibition at 10 µM [5]: 97.4% |
| COc1ccc(C(=O)N[C@@H](Cc2ccccc2)[C@H](O)CN(CC(C)C)S(=O)(=O)c2ccc([N+](=O)[O-])cc2)c(O)c1 | 12.7 | – | – | – |
| CC(C)CN(C[C@@H](O)[C@H](Cc1ccccc1)NC(=O)c1cc(O)cc(O)c1)S(=O)(=O)c1ccc([N+](=O)[O-])cc1 | 0.065 | 86900 | 1.34e+06 | – |
| CC(C)CN(C[C@@H](O)[C@H](Cc1ccccc1)NC(=O)c1cc(O)c(O)c(O)c1)S(=O)(=O)c1ccc(C(F)(F)F)cc1 | 0.33 | > 100000 | > 303000 | – |
| CC(C)CN(C[C@@H](O)[C@H](Cc1ccccc1)NC(=O)c1cc(O)cc(O)c1)S(=O)(=O)c1ccc(F)cc1 | 0.021 | > 100000 | > 4.76e+06 | EC50 [2]: 740 nM; inhibition at 10 µM [8]: 2.6%; Ratio EC50 [9]: 0.82; inhibition at 10 µM [5]: 100%; EC50 [3]: 610 nM |
| CC(C)CN(C[C@@H](O)[C@H](Cc1ccccc1)NC(=O)c1ccccc1O)S(=O)(=O)c1ccc(C(F)(F)F)cc1 | 23 | – | – | – |
| COc1ccc(C(=O)N[C@@H](Cc2ccccc2)[C@H](O)CN(CC(C)C)S(=O)(=O)c2ccc(C(F)(F)F)cc2)c(O)c1 | 16.2 | – | – | – |
| COc1cc(C(=O)N[C@@H](Cc2ccccc2)[C@H](O)CN(CC(C)C)S(=O)(=O)c2ccc([N+](=O)[O-])cc2)cc(OC)c1O | 0.79 | > 100000 | > 127000 | – |
| COc1cc(C(=O)N[C@@H](Cc2ccccc2)[C@H](O)CN(CC(C)C)S(=O)(=O)c2ccc(F)cc2)cc(OC)c1O | 0.32 | > 100000 | > 312000 | inhibition at 10 µM [5]: 84.2% |
| CC(C)CN(C[C@@H](O)[C@H](Cc1ccccc1)NC(=O)c1ccc(O)cc1O)S(=O)(=O)c1ccc(F)cc1 | 0.63 | > 100000 | > 159000 | inhibition at 10 µM [5]: 99.4% |
| CC(C)CN(C[C@@H](O)[C@H](Cc1ccccc1)NC(=O)c1ccc(O)cc1O)S(=O)(=O)c1ccc(C(F)(F)F)cc1 | 8.82 | – | – | – |
| CC(C)CN(C[C@@H](O)[C@H](Cc1ccccc1)NC(=O)c1ccccc1O)S(=O)(=O)c1ccc([N+](=O)[O-])cc1 | 13.3 | – | – | – |
| COc1ccc(C(=O)N[C@@H](Cc2ccccc2)[C@H](O)CN(CC(C)C)S(=O)(=O)c2ccc(F)cc2)c(O)c1 | 8.34 | – | – | inhibition at 10 µM [5]: 82.2% |
| CC(C)CN(C[C@@H](O)[C@H](Cc1ccccc1)NC(=O)c1cc(O)cc(O)c1)S(=O)(=O)c1ccc(C(F)(F)F)cc1 | 0.078 | > 100000 | > 1.28e+06 | – |
| CC(C)CN(C[C@@H](O)[C@H](Cc1ccccc1)NC(=O)c1ccc(O)cc1O)S(=O)(=O)c1ccc([N+](=O)[O-])cc1 | 2.42 | > 100000 | > 41300 | – |
| COc1cc(O)c(C(=O)N[C@@H](Cc2ccccc2)[C@H](O)CN(CC(C)C)S(=O)(=O)c2ccc(C(F)(F)F)cc2)cc1OC | 11.4 | – | – | – |
| COc1cc(O)c(C(=O)N[C@@H](Cc2ccccc2)[C@H](O)CN(CC(C)C)S(=O)(=O)c2ccc(F)cc2)cc1OC | 11.5 | – | – | – |
| CC(C)CN(C[C@@H](O)[C@H](Cc1ccccc1)NC(=O)c1ccccc1O)S(=O)(=O)c1ccc(F)cc1 | 2.04 | > 100000 | > 49000 | inhibition at 10 µM [5]: 92.6% |
| CC(C)CN(C[C@@H](O)[C@H](Cc1ccccc1)NC(=O)c1ccc(O)c(O)c1)S(=O)(=O)c1ccc([N+](=O)[O-])cc1 | 0.25 | 35600 | 142000 | – |
| CC(C)CN(C[C@@H](O)[C@H](Cc1ccccc1)NC(=O)c1cc(O)c(O)c(O)c1)S(=O)(=O)c1ccc([N+](=O)[O-])cc1 | 0.73 | > 100000 | > 137000 | – |
| CC(C)CN(C[C@@H](O)[C@H](Cc1ccccc1)NC(=O)c1ccc(O)c(O)c1)S(=O)(=O)c1ccc(F)cc1 | 0.075 | 57600 | 768000 | EC50 [2]: 360 nM; inhibition at 10 µM [8]: 12.5%; Ratio EC50 [9]: 6.06; inhibition at 10 µM [5]: 100%; EC50 [3]: 2180 nM |
| COc1cc(C(=O)N[C@@H](Cc2ccccc2)[C@H](O)CN(CC(C)C)S(=O)(=O)c2ccc(C(F)(F)F)cc2)cc(OC)c1O | 8.27 | – | – | – |
| CC(C)CN(C[C@@H](O)[C@H](Cc1ccccc1)NC(=O)c1ccc(Cl)cc1O)S(=O)(=O)c1ccc(C(F)(F)F)cc1 | 6.23 | – | – | – |
| CC(C)CN(C[C@@H](O)[C@H](Cc1ccccc1)NC(=O)c1ccc(O)c(O)c1)S(=O)(=O)c1ccc(C(F)(F)F)cc1 | 0.077 | 38200 | 496000 | – |
| COc1cc(O)c(C(=O)N[C@@H](Cc2ccccc2)[C@H](O)CN(CC(C)C)S(=O)(=O)c2ccc([N+](=O)[O-])cc2)cc1OC | 13.7 | – | – | – |
